Experimental data taken from US20210395239A1 (Hoffmann-La Roche Inc., priority 2018, published 2021).

Biological target: T1, human TLR7 (Homo sapiens, UniProt Q9NYK1)
T1 construct: host or cells: HEK293 (HEK-Blue hTLR7)
T1 sequence (Q9NYK1 27-1049): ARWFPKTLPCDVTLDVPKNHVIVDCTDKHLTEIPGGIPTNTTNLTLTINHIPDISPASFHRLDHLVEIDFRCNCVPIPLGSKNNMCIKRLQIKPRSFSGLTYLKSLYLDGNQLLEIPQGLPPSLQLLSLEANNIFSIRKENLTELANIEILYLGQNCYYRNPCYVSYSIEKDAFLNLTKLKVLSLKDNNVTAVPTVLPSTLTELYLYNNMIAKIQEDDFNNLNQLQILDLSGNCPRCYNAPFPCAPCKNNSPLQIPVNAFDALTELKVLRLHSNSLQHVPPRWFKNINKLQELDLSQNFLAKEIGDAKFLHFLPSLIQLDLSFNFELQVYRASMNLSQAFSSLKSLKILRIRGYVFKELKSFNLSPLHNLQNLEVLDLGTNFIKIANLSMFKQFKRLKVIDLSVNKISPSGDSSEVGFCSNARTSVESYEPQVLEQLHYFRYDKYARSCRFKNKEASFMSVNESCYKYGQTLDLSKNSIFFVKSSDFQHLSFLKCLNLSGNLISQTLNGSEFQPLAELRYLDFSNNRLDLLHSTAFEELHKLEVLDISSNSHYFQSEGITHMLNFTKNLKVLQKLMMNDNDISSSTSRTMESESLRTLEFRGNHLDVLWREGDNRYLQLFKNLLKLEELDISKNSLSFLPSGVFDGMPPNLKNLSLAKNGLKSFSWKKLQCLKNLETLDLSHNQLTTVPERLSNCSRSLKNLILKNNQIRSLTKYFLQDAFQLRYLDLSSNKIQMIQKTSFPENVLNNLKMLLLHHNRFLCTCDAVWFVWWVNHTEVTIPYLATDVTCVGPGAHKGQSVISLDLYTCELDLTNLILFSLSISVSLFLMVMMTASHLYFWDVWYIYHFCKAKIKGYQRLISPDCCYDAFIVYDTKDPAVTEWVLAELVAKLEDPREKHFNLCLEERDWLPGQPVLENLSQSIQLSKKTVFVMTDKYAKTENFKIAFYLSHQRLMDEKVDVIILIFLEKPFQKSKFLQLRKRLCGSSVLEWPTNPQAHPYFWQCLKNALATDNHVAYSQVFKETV
Assay: HEK293-Blue-hTLR-7 cells assay (SEAP reporter, R848 stimulation)
Assay type: cell-based
Conditions: HEK293-Blue-hTLR7 cells, R848, 20 hrs; read-out: HEK/hTLR7 IC50
In short: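 HEK293-Blue-hTLR7 cells (NF-κB/AP-1-driven SEAP reporter) were stimulated with R848 alongside serially diluted compound at 1% final DMSO for 20 h at 37 °C. Supernatant SEAP was then developed with QUANTI-Blue for 2 h at 37 °C and absorbance read at 620–655 nm; antagonism is measured as reduced reporter signal.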

| IC50 [nM] | SMILES |
| --- | --- |
| 22 | [2H]c1ccc2c(N3C[C@H](CN4CC(c5ccc(N6C[C@H](OC)[C@@H](N)C6)cc5)C4)O[C@H](C)C3)ccc(C#N)c2n1 [Example 140, 5-[(2S,6R)-2-[[3-[4-[(3S,4S)-3-amino-4-methoxy-pyrrolidin-1-yl]phenyl]azetidin-1-yl]methyl]-6-methyl-morpholin-4-yl]-2-deuterio-quinoline-8-carbonitrile] |
| 4 | [2H]c1ccc2c(N3C[C@H](CN4CC(c5ccc(N6CC(C)(N)C6)cc5)C4)O[C@H](C)C3)ccc(C#N)c2n1 [Example 141, 5-[(2S,6R)-2-[[3-[4-(3-amino-3-methyl-azetidin-1-yl)phenyl]azetidin-1-yl]methyl]-6-methyl-morpholin-4-yl]-2-deuterio-quinoline-8-carbonitrile] |
| 20 | [2H]c1ccc2c(N3C[C@H](CN4CCN(c5ncc(N6C[C@@H](N)[C@H](OC)C6)cc5C)CC4)O[C@H](C)C3)ccc(C#N)c2n1 [Example 142, 5-[(2S,6R)-2-[[4-[5-[(3R,4R)-3-amino-4-methoxy-pyrrolidin-1-yl]-3-methyl-2-pyridyl]piperazin-1-yl]methyl]-6-methyl-morpholin-4-yl]-2-deuterio-quinoline-8-carbonitrile] |
| 11 | [2H]c1ccc2c(N3C[C@H](CN4CCN(c5nc(C)cc(N6C[C@@H](N)[C@H](OC)C6)n5)CC4)O[C@H](C)C3)ccc(C#N)c2n1 [Example 144, 5-[(2S,6R)-2-[[4-[4-[(3R,4R)-3-amino-4-methoxy-pyrrolidin-1-yl]-6-methyl-pyrimidin-2-yl]piperazin-1-yl]methyl]-6-methyl-morpholin-4-yl]-2-deuterio-quinoline-8-carbonitrile] |
| 14 | [2H]c1ccc2c(N3C[C@H](CN4CC(c5cnc(N6CC(C)(N)C6)cc5C)C4)O[C@H](C)C3)ccc(C#N)c2n1 [Example 145, 5-[(2S,6R)-2-[[3-[6-(3-amino-3-methyl-azetidin-1-yl)-4-methyl-3-pyridyl]azetidin-1-yl]methyl]-6-methyl-morpholin-4-yl]-2-deuterio-quinoline-8-carbonitrile] |
| 13 | [2H]c1ccc2c(N3C[C@H](CN4CC(c5cnc(N6C[C@@H](N)[C@H](OC)C6)cc5C)C4)O[C@H](C)C3)ccc(C#N)c2n1 [Example 146, 5-[(2S,6R)-2-[[3-[6-[(3R,4R)-3-amino-4-methoxy-pyrrolidin-1-yl]-4-methyl-3-pyridyl]azetidin-1-yl]methyl]-6-methyl-morpholin-4-yl]-2-deuterio-quinoline-8-carbonitrile] |
| 53 | [2H]c1ccc2c(N3C[C@H](CN4CCN(c5ccc(N6CC(C)(N)C6)c(C)n5)CC4)O[C@H](C)C3)ccc(C#N)c2n1 [Example 147, 5-[(2S,6R)-2-[[4-[5-(3-amino-3-methyl-azetidin-1-yl)-6-methyl-2-pyridyl]piperazin-1-yl]methyl]-6-methyl-morpholin-4-yl]-2-deuterio-quinoline-8-carbonitrile] |
| 56 | Cc1cc(N2CC(C)(N)C2)cnc1N1CCN(C[C@H]2CN(c3ccc(C#N)n4ncc(F)c34)C[C@@H](C)O2)CC1 [Example 148, 4-[(2S,6R)-2-[[4-[5-(3-amino-3-methyl-azetidin-1-yl)-3-methyl-2-pyridyl]piperazin-1-yl]methyl]-6-methyl-morpholin-4-yl]-3-fluoro-pyrazolo[1,5-a]pyridine-7-carbonitrile] |
| 16 | [2H]c1ccc2c(N3C[C@H](CN4CC(c5ccc(N6C[C@@H](N)[C@H](OC)C6)nc5)C4)O[C@H](C)C3)ccc(C#N)c2n1 [Example 149, 5-[(2S,6R)-2-[[3-[6-[(3R,4R)-3-amino-4-methoxy-pyrrolidin-1-yl]-3-pyridyl]azetidin-1-yl]methyl]-6-methyl-morpholin-4-yl]-2-deuterio-quinoline-8-carbonitrile] |
| 35 | [2H]c1ccc2c(N3C[C@H](CN4CCN(c5ccc(N6C[C@H](N)[C@@H](F)C6)nc5)CC4)O[C@H](C)C3)ccc(C#N)c2n1 [Example 150, 5-[(2S,6R)-2-[[4-[6-[(3S,4S)-3-amino-4-fluoro-pyrrolidin-1-yl]-3-pyridyl]piperazin-1-yl]methyl]-6-methyl-morpholin-4-yl]-2-deuterio-quinoline-8-carbonitrile] |
| 35 | [2H]c1ccc2c(N3C[C@H](CN4CCN(c5ccc(N6C[C@@H]7C[C@H]6CN7)nc5)CC4)O[C@H](C)C3)ccc(C#N)c2n1 [Example 151, 2-deuterio-5-[(2S,6R)-2-[[4-[6-[(1S,4S)-2,5-diazabicyclo[2.2.1]heptan-2-yl]-3-pyridyl]piperazin-1-yl]methyl]-6-methyl-morpholin-4-yl]quinoline-8-carbonitrile] |
| 32 | [2H]c1ccc2c(N3C[C@H](CN4CCN(c5ccc(N6C[C@H]7C[C@@H]6CN7)nc5)CC4)O[C@H](C)C3)ccc(C#N)c2n1 [Example 153, 2-deuterio-5-[(2S,6R)-2-[[4-[6-[(1R,4R)-2,5-diazabicyclo[2.2.1]heptan-2-yl]-3-pyridyl]piperazin-1-yl]methyl]-6-methyl-morpholin-4-yl]quinoline-8-carbonitrile] |
| 18 | [2H]c1ccc2c(N3C[C@H](CN4CCN(c5cccc(N6CC(C)(N)C6)n5)CC4)O[C@H](C)C3)ccc(C#N)c2n1 [Example 155, 5-[(2S,6R)-2-[[4-[6-(3-amino-3-methyl-azetidin-1-yl)-2-pyridyl]piperazin-1-yl]methyl]-6-methyl-morpholin-4-yl]-2-deuterio-quinoline-8-carbonitrile] |
| 21 | [2H]c1ccc2c(N3C[C@H](CN4CC(O)(c5ccc(N6CC(C)(N)C6)cc5)C4)O[C@H](C)C3)ccc(C#N)c2n1 [Example 156, 5-[(2S,6R)-2-[[3-[4-(3-amino-3-methyl-azetidin-1-yl)phenyl]-3-hydroxy-azetidin-1-yl]methyl]-6-methyl-morpholin-4-yl]-2-deuterio-quinoline-8-carbonitrile] |
| 8 | C[C@@H]1CN(c2ccc(C#N)n3nccc23)C[C@H](CN2CC(c3ccc(N4CC(C)(N)C4)nc3)C2)O1 [Example 157, 4-[(2S,6R)-2-[[3-[6-(3-amino-3-methyl-azetidin-1-yl)-3-pyridyl]azetidin-1-yl]methyl]-6-methyl-morpholin-4-yl]pyrazolo[1,5-a]pyridine-7-carbonitrile] |
| 30 | [2H]c1ccc2c(N3C[C@H](CN4CC(c5cccc(N6CC(C)(N)C6)n5)C4)O[C@H](C)C3)ccc(C#N)c2n1 [Example 159, 5-[(2S,6R)-2-[[3-[6-(3-amino-3-methyl-azetidin-1-yl)-2-pyridyl]azetidin-1-yl]methyl]-6-methyl-morpholin-4-yl]-2-deuterio-quinoline-8-carbonitrile] |
| 8 | [2H]c1ccc2c(N3C[C@H](CN4CCN(c5ccc(N6CC7(CN(C)C7)C6)nc5)CC4)O[C@H](C)C3)ccc(C#N)c2n1 [Example 161, 2-deuterio-5-[(2R,6S)-2-methyl-6-[[4-[6-(6-methyl-2,6-diazaspiro[3.3]heptan-2-yl)-3-pyridyl]piperazin-1-yl]methyl]morpholin-4-yl]quinoline-8-carbonitrile] |
